Measurements as given in PubChem BioAssay (NCI).
Several values for one entry are separate records, joined by “and”; a condition that tells them apart may be missing. Equal values may be shown once.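 All cell lines were grown in 96-well plates and treated with compound for 48 hours. GI50: concentration for 50% inhibition of growth. Definition used: TGI = concentration required for complete inhibition of growth.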

Legend:
Assay in all cases: NCI anticancer screen, dose series, 48 h
[1] = tested on: SNB-19 CNS
[2] = tested on: SW-620 colon
[3] = tested on: HCC-2998 colon
[4] = tested on: SF-268 CNS
[5] = tested on: NCI-H522 lung
[6] = tested on: NCI/ADR-RES ovarian
[7] = tested on: TK-10 renal
[8] = tested on: MDA-MB-231 breast
[9] = tested on: A498 renal
[10] = tested on: SK-MEL-2 melanoma

## CC(C)n1nc(-c2ccc3oc(N)nc3c2)c2c(N)ncnc21
[1]
  GI50: 0.0336 µM and 0.027 µM
  TGI: 1.94 µM and 1.33 µM
[2]
  GI50: 0.037 µM and 0.0379 µM
  TGI: 21.1 µM and 12.6 µM
[3]
  GI50: 0.024 µM and 0.0259 µM
  TGI: 11.5 µM and 11.9 µM
[4]
  GI50: 0.0151 µM and 0.0154 µM
  TGI: 2.88 µM and 1.85 µM
[5]
  GI50: < 0.01 µM
  TGI: 15.3 µM and 1.76 µM
[6]
  GI50: 0.0251 µM and 0.0245 µM
  TGI: 0.58 µM and 0.83 µM
[7]
  GI50: < 0.0113 µM and 0.0112 µM
  TGI: 0.24 µM and 0.0897 µM
[8]
  GI50: 0.0165 µM and 0.0211 µM
  TGI: 1.97 µM and 1.7 µM
[9]
  GI50: < 0.01 µM
  TGI: < 0.01 µM
[10]
  GI50: 0.0194 µM and 0.0157 µM
  TGI: 0.581 µM and 0.113 µM

## Cn1c2ccccc2c2c3[nH][nH]c(=O)c3c3c4ccccc4[nH]c3c21
[1]
  GI50: 3.05 µM
  TGI: > 100 µM
[2]
  GI50: 2.4 µM
  TGI: 14.3 µM
[3]
  GI50: 2.74 µM
  TGI: 8.1 µM
[4]
  GI50: 2.62 µM
  TGI: 14.4 µM
[5]
  GI50: 1.56 µM
  TGI: 10.4 µM
[6]
  GI50: 4.02 µM
  TGI: 37.5 µM
[7]
  GI50: 4.74 µM
  TGI: 57.2 µM
[8]
  GI50: 1.39 µM
  TGI: 46.1 µM
[9]
  GI50: 1.61 µM
  TGI: 5.79 µM
[10]
  GI50: 1.77 µM
  TGI: 5.78 µM

## COCCN1CCN(Cc2ccc(-c3n[nH]c4c3C(=O)c3c(NC(=O)NN5CCOCC5)cccc3-4)cc2)CC1
[1]
  GI50: 0.0298 µM
  TGI: > 10 µM
[2]
  GI50: 0.0242 µM
  TGI: > 6.22 µM
[3]
  GI50: 0.0262 µM
  TGI: 0.274 µM
[4]
  GI50: 0.0318 µM
[5]
  GI50: 0.0194 µM
  TGI: 0.0736 µM
[6]
  GI50: 0.713 µM
  TGI: > 10 µM
[7]
  GI50: 0.0199 µM
  TGI: 0.422 µM
[8]
  GI50: 0.0194 µM
  TGI: 0.584 µM
[9]
  GI50: 0.0292 µM
  TGI: 0.141 µM
[10]
  GI50: 0.0212 µM
  TGI: 0.0556 µM

## CN(C)CC(C(=O)Cc1ccccc1)c1ccccc1 (centres undefined)
[1]
  GI50: 15 µM
  TGI: 30 µM
[2]
  GI50: 1.79 µM
  TGI: 3.59 µM
[3]
  GI50: 15.9 µM
  TGI: 30.3 µM
[4]
  GI50: 8.25 µM
  TGI: 22.6 µM
[5]
  GI50: 1.74 µM
  TGI: 3.47 µM
[6]
  GI50: 4.4 µM
  TGI: 23.9 µM
[7]
  GI50: 1.56 µM
  TGI: 3.1 µM
[8]
  GI50: 3.48 µM
  TGI: 11 µM
[9]
  GI50: 12.4 µM
  TGI: 25 µM
[10]
  GI50: 2.54 µM
  TGI: 5.57 µM

## N=C(N)c1ccc(NCCOCCNc2ccc(C(=N)N)cc2)cc1
[1]
  GI50: 27.3 µM
  TGI: > 100 µM
[2]
  GI50: 63.6 µM
  TGI: > 100 µM
[3]
  GI50: 41.9 µM
  TGI: > 100 µM
[4]
  GI50: 45.3 µM
  TGI: > 100 µM
[5]
  GI50: 29.8 µM
  TGI: > 100 µM
[6]
  GI50: 78.5 µM
  TGI: > 100 µM
[7]
  GI50: > 100 µM
  TGI: > 100 µM
[8]
  GI50: > 100 µM
  TGI: > 100 µM
[9]
  GI50: 17 µM
  TGI: 94.6 µM
[10]
  GI50: 51.6 µM
  TGI: > 100 µM

## C/C(=N\NC(=S)N1CCCCCCCCCCCC1)c1ccccn1
[1]
  TGI: 2.03 µM
[2]
  TGI: 0.692 µM
[3]
  TGI: 1.63 µM
[4]
  TGI: 2.01 µM
[5]
  TGI: 0.408 µM
[6]
  TGI: 9.7 µM
[7]
  TGI: 1.35 µM
[8]
  TGI: 1.22 µM
[9]
  TGI: 1.32 µM
[10]
  TGI: 1.27 µM

## CCCCN(CCCC)CCC(O)c1cc2c(Cl)cc(Cl)cc2c2cc(C(F)(F)F)ccc12 (centres undefined)
[1]
  TGI: 40.6 µM
[2]
  TGI: 25.7 µM
[3]
  TGI: 24.2 µM
[4]
  TGI: 24.4 µM
[5]
  TGI: 32.9 µM
[6]
  TGI: 26.1 µM
[7]
  TGI: 27.6 µM
[8]
  TGI: 15.3 µM
[9]
  TGI: 13.8 µM
[10]
  TGI: 30.2 µM

## O=C1Nc2ccccc2/C1=C\c1nc(C2CCN(S(=O)(=O)c3ccc(F)cc3)CC2)n2ccccc12
[1]
  GI50: 3.99 µM
  TGI: 33.3 µM
[2]
  GI50: 85.7 µM
  TGI: > 100 µM
[3]
  GI50: > 100 µM
  TGI: > 100 µM
[4]
  GI50: 1.9 µM
  TGI: 13.8 µM
[5]
  GI50: 1.94 µM
  TGI: 12 µM
[6]
  GI50: 3.43 µM
  TGI: > 100 µM
[7]
  GI50: 2.41 µM
  TGI: 8.62 µM
[8]
  GI50: 2.9 µM
  TGI: 60.8 µM
[9]
  GI50: 17.1 µM
  TGI: > 100 µM
[10]
  GI50: 2.08 µM
  TGI: 7.35 µM

## C/C(=N\N=C(\[Se])N(C)C)c1ccccn1
[1]
  TGI: 15.9 µM
[2]
  TGI: 15.2 µM
[3]
  TGI: 13.9 µM
[4]
  TGI: 25.6 µM
[5]
  TGI: 0.975 µM
[6]
  TGI: 1.67 µM
[7]
  TGI: 18.1 µM
[8]
  TGI: 30.7 µM
[9]
  TGI: 9.94 µM
[10]
  TGI: 12.9 µM

## Nc1nc(N)c2c(n1)NC(c1ccccc1)C1CCc3ccccc3C1=N2 (centres undefined)
[1]
  GI50: 15.6 µM
  TGI: 29.8 µM
[2]
  GI50: 6.3 µM
  TGI: 20.7 µM
[3]
  GI50: 3.82 µM
  TGI: 15.6 µM
[4]
  GI50: 6.96 µM
  TGI: 20 µM
[5]
  GI50: 4.53 µM
  TGI: 21.2 µM
[6]
  GI50: 3.13 µM
  TGI: 13.6 µM
[7]
  GI50: 3.01 µM
  TGI: 14.8 µM
[8]
  GI50: 6.02 µM
  TGI: 20.3 µM
[9]
  GI50: 2.29 µM
  TGI: 8.66 µM
[10]
  GI50: 3.48 µM
  TGI: 14 µM
